The subject of assay [1] is S. aureus. Kind of assay: microbe, parasite or virus in culture. The format is cell-based.
Assay [2] deals with microorganisms with acquired resistance. Kind of assay: microbe, parasite or virus in culture. The format is cell-based. The conditions noted are these: for Peptide MIC Alone: Ciprofloxacin section.
For another assay, the system named is bacterial isolates. The assay can be described thus: microbe, parasite or virus in culture. In kind it is cell-based. The note with it: for FIC: peptide + Ciprofloxacin.
In assay [3] the test system is MSSA (Smith, ATCC # 19640). The assay can be described thus: In vivo efficacy, MSSA infection. Further details: species or system S. aureus. The note with it: formulation D, 60 min post-infection, end of eight day observation.
The test system of another assay is E. coli. The format is cell-based. The conditions noted are these: for Peptide MIC values: agarose dilution.
The next assay concerns E. faecium. In kind it is cell-based.
The test system of another assay is K. pneumoniae. In kind it is cell-based.
A further assay relates to S. pneumoniae. Kind of assay: Agarose dilution assay (MIC). The format is cell-based. The conditions noted are these: agarose dilution.
The next assay concerns A. calcoaceticus. In kind it is cell-based. The conditions noted are these: A. calcoaceticus strain AC001.
The subject of another assay is E. faecalis. The format is cell-based.
The test system of assay [4] is S. aureus. The format is cell-based. The note with it: for Peptide MIC values: agarose dilution.
The next assay has as its system S. maltophilia. The format is cell-based.
A further assay relates to P. aeruginosa. The format is cell-based. The conditions noted are these: for MIC: P. aeruginosa strain PA005; for Peptide MIC values: agarose dilution.
A further assay has as its system E. cloacae. In kind it is cell-based. The conditions noted are these: E. cloacae strain ECL007.
Another assay concerns S. marcescens. The format is cell-based.
The next assay has as its system S. epidermidis. The format is cell-based.
Assay [5] concerns inherently resistant microorganisms. The assay can be described thus: microbe, parasite or virus in culture. The format is cell-based.

≈ marks a conversion by molar mass, not a printed value. Read-outs that look alike come from different tables or passages of the source. Peptide text beside a SMILES is read from it.

Turning to `CC[C@H](C)[C@H](NC(=O)[C@H](CC(C)C)NC(=O)[C@H](C)NC(=O)[C@@H]1CCCN1C(=O)[C@H](CC(C)C)NC(=O)[C@H](C)NC(=O)[C@@H](NC(=O)[C@@H](NC(=O)[C@@H](NC(=O)[C@@H](NC(=O)[C@H](CCCCN)NC(=O)[C@H](CCCCN)NC(=O)[C@H](CC(C)C)NC(=O)[C@@H](NC(=O)[C@H](CCCCN)NC(=O)[C@@H](NC(=O)[C@H](CC(C)C)NC(=O)[C@H](CC(N)=O)NC(=O)[C@H](CCCCN)NC(=O)[C@@H](NC(=O)[C@H](Cc1ccccc1)NC(=O)[C@H](CO)NC(=O)[C@H](CCCCN)NC(=O)[C@H](Cc1c[nH]c2ccccc12)NC(=O)[C@@H](N)CCCCN)[C@@H](C)CC)[C@@H](C)O)C(C)C)C(C)C)C(C)C)[C@@H](C)O)[C@@H](C)O)C(=O)N[C@@H](CO)C(=O)O` [MBI 29A2] (H-KWKSFIKNLTKVLKKVVTTALPALIS-OH; N-terminus and C-terminus assumed), the “Ciprofloxacin MIC + Peptide” value stood at 0.5 µg/mL in the assay on S. aureus [1] (S. aureus SA10); 0.5 µg/mL with S. aureus [1] (S. aureus SA25); 2 µg/mL in assay [2] (P. aeruginosa PA41); 1 µg/mL in [2] (P. aeruginosa PA77); 16 µg/mL in the assay on bacterial isolates (P. aeruginosa PA24); 0.5 µg/mL with bacterial isolates (S. aureus SA10). In addition, in the assay with bacterial isolates (S. aureus SA93), the “Ciprofloxacin MIC + Peptide” value worked out at 8 µg/mL. In addition, the “Peptide MIC + Ciprofloxacin” value in the assay with S. aureus [1] (S. aureus SA10) turned out to be 2 µg/mL; in the assay on S. aureus [1] (S. aureus SA25), 1 µg/mL; in [2] (P. aeruginosa PA41), 4 µg/mL; in assay [2] (P. aeruginosa PA77), 8 µg/mL; in the assay on bacterial isolates (P. aeruginosa PA24), 8 µg/mL; in the assay with bacterial isolates (S. aureus SA10) it was 2 µg/mL. Further, in the assay with bacterial isolates (S. aureus SA93), the “Peptide MIC + Ciprofloxacin” value is 0.5 µg/mL. The entries for the “Peptide MIC Alone” value in assay [2] (P. aeruginosa PA41) and in [2] (P. aeruginosa PA77) were 8 µg/mL and 16 µg/mL, respectively. In addition, the FIC turned out to be 0.63 in the assay with bacterial isolates (P. aeruginosa PA24), 0.52 in the assay with bacterial isolates (S. aureus SA10) and 0.50 with bacterial isolates (S. aureus SA93).
On to ILWPWWPWRRK [MBI 11B8CN], for which the “% Survival” value in [3] (12 mg/kg ip) was found to be 0%; in assay [3] (18 mg/kg ip), 10%. Further, the MIC was 16 µg/mL against E. coli (E. coli strain ECO002); 16 µg/mL against E. faecium (E. faecium strain EFM001); over 128 µg/mL in the assay on K. pneumoniae (K. pneumoniae strain KP001); over 128 µg/mL in the assay with A. calcoaceticus; 32 µg/mL against E. faecalis (E. faecalis strain EFS002); 4 µg/mL in the assay with S. aureus [4] (S. aureus strain SA009). Also, the MIC is 128 µg/mL in the assay with S. maltophilia (S. maltophilia strain SMA002); over 128 µg/mL with P. aeruginosa; over 128 µg/mL in the assay on E. cloacae; over 128 µg/mL against S. marcescens (S. marcescens strain SMS003); 4 µg/mL with S. epidermidis (S. epidermidis strain SE002). The “Peptide MIC values” was 32 µg/mL in the assay with E. coli (E. coli ATCC 25922); 4 µg/mL with E. coli (E. coli NCTC 10418); 8 µg/mL in the assay with E. faecium (agarose dilution); over 128 µg/mL in the assay on S. pneumoniae (S. pneumoniae 406LE8); over 128 µg/mL in the assay on S. pneumoniae (S. pneumoniae 60120); 128 µg/mL in the assay on S. pneumoniae (S. pneumoniae ATCC 49619). The “Peptide MIC values” in the assay on S. aureus [4] (S. aureus MRSA9) was 2 µg/mL; in the assay on S. aureus [4] (S. aureus MRSA13) it was 32 µg/mL; in the assay on S. aureus [4] (S. aureus MRSA17), 4 µg/mL; with P. aeruginosa (P. aeruginosa ATCC 27853) it was over 128 µg/mL; in the assay with P. aeruginosa (P. aeruginosa NCTC 10662) it was over 128 µg/mL; in the assay with S. marcescens (agarose dilution, S. marcescens SM82), over 128 µg/mL.
As to `C/C(=C\C(=O)OCCCCCCCCC(=O)O)C[C@@H]1OC[C@H](C[C@@H]2O[C@H]2[C@@H](C)[C@H](C)O)[C@@H](O)[C@H]1O` [Mupirocin], the MIC with S. aureus [1] (Staphylococcus aureus, S. aureus SBSA4, read-out: Mupirocin MIC Alone) is over 100 µg/mL; in assay [2] (Enterococcus faecium, read-out: MIC alone (antibiotic agent), E. faecium) it was 100 µg/mL (≈ 200 µM); in [2] (Staphylococcus aureus, read-out: MIC alone (antibiotic agent), S. aureus), over 100 µg/mL; in the assay on bacterial isolates (Escherichia coli, read-out: Mupirocin MIC Alone, E. coli ECO1), over 100 µg/mL; in the assay on bacterial isolates (Escherichia coli, read-out: Mupirocin MIC Alone, E. coli ECO2), 100 µg/mL (≈ 200 µM); with bacterial isolates (Escherichia coli, read-out: Mupirocin MIC Alone, E. coli ECO3), 100 µg/mL (≈ 200 µM). Moreover, the MIC is 100 µg/mL (≈ 200 µM) in the assay on bacterial isolates (Escherichia coli, read-out: Mupirocin MIC Alone, E. coli ECO5); 100 µg/mL (≈ 200 µM) in the assay with bacterial isolates (Escherichia coli, read-out: Mupirocin MIC Alone, E. coli SBECO1); over 100 µg/mL in the assay on bacterial isolates (Escherichia coli, read-out: Mupirocin MIC Alone, E. coli SBECO2); over 100 µg/mL in the assay with bacterial isolates (Pseudomonas aeruginosa, read-out: Mupirocin MIC Alone, P. aeruginosa PA2); over 100 µg/mL with bacterial isolates (Pseudomonas aeruginosa, read-out: Mupirocin MIC Alone, P. aeruginosa PA3); over 100 µg/mL in the assay with bacterial isolates (Pseudomonas aeruginosa, read-out: Mupirocin MIC Alone, P. aeruginosa PA4). Further, the MIC in the assay on bacterial isolates (Pseudomonas aeruginosa, read-out: Mupirocin MIC Alone, P. aeruginosa SBPA1) is over 100 µg/mL; in the assay with bacterial isolates (Serratia marcescens, read-out: Mupirocin MIC Alone, S. marcescens SBSM1), over 100 µg/mL; in the assay with bacterial isolates (Serratia marcescens, read-out: Mupirocin MIC Alone, S. marcescens SBSM2) it was over 100 µg/mL; with bacterial isolates (Staphylococcus aureus, read-out: Mupirocin MIC Alone, S. aureus SBSA3), 100 µg/mL (≈ 200 µM); in the assay on bacterial isolates (Staphylococcus aureus, read-out: Mupirocin MIC Alone, S. aureus SBSA4), over 100 µg/mL; in assay [5] (Escherichia coli, read-out: Mupirocin MIC Alone, E. coli), 100 µg/mL (≈ 200 µM). The MIC in [5] (Pseudomonas aeruginosa, read-out: Mupirocin MIC + Peptide, P. aeruginosa, peptide MBI 28) is 3 µg/mL; in [5] (Pseudomonas aeruginosa, read-out: Mupirocin MIC + Peptide, P. aeruginosa, peptide MBI 29A3) it was 0.1 µg/mL; in assay [5] (Pseudomonas aeruginosa, read-out: Mupirocin MIC Alone, P. aeruginosa), over 100 µg/mL; in [5] (read-out: Mupirocin MIC + Peptide, E. coli, peptide MBI 11B4CN), 3 µg/mL; in assay [5] (read-out: Mupirocin MIC + Peptide, E. coli, peptide MBI 11D18CN), 1 µg/mL; in [5] (read-out: Mupirocin MIC + Peptide, E. coli, peptide MBI 21A1), 3 µg/mL. The MIC is 3 µg/mL in assay [5] (read-out: Mupirocin MIC + Peptide, E. coli, peptide MBI 26) and 0.1 µg/mL in [5] (read-out: Mupirocin MIC + Peptide, E. coli, peptide MBI 28). The “MIC comb. (antibiotic agent)” value in assay [2] (E. faecium, with MBI 11CN) amounted to 0.1 µg/mL (≈ 0.2 µM); in assay [2] (E. faecium, with MBI 11G13CN), 0.1 µg/mL (≈ 0.2 µM); in assay [2] (S. aureus, with MBI 11A1CN) it was 1 µg/mL (≈ 2 µM); in assay [2] (S. aureus, with MBI 11CN), 0.1 µg/mL (≈ 0.2 µM); in assay [2] (S. aureus, with MBI 11D18CN), 0.1 µg/mL (≈ 0.2 µM); in assay [2] (S. aureus, with MBI 11F1CN), 3 µg/mL (≈ 5.99 µM). Also, the “MIC comb. (antibiotic agent)” value came to 0.1 µg/mL (≈ 0.2 µM) in assay [2] (S. aureus, with MBI 21A1); 0.1 µg/mL (≈ 0.2 µM) in assay [2] (S. aureus, with MBI 21A2); 0.3 µg/mL (≈ 0.599 µM) in [2] (S. aureus, with MBI 21A10); 0.1 µg/mL (≈ 0.2 µM) in assay [2] (S. aureus, with MBI 26); 0.1 µg/mL (≈ 0.2 µM) in assay [2] (S. aureus, with MBI 29A3).
With ILRRWPWWPWRRK [MBI 11B1CN], the “% Survival” value in assay [3] (12 mg/kg ip) was 0%; in assay [3] (18 mg/kg ip) it was 30%; in assay [3] (24 mg/kg ip), 90%. For the same molecule, the MIC in the assay on E. coli (E. coli strain ECO003) is 8 µg/mL; with E. faecium (E. faecium strain EFM002), 2 µg/mL; with K. pneumoniae (K. pneumoniae strain KP002) it was 64 µg/mL; with A. calcoaceticus, 32 µg/mL; with E. faecalis (E. faecalis strain EFS004), 8 µg/mL; against S. aureus [4] (S. aureus strain SA005), 2 µg/mL. The MIC against S. maltophilia (S. maltophilia strain SMA001) is 64 µg/mL; in the assay with P. aeruginosa it was over 128 µg/mL; against E. cloacae it was over 128 µg/mL; with S. marcescens (S. marcescens strain SMS004) it was over 128 µg/mL; against S. epidermidis (S. epidermidis strain SE001), 2 µg/mL.

The values are drawn from patent US20020035061A1, “COMPOSITIONS AND METHODS FOR TREATING INFECTIONS USING CATIONIC PEPTIDES ALONE OR IN COMBINATION WITH ANTIBIOTICS” (priority 1996, published 2002).
